Measured values from ChEMBL document CHEMBL2216751, “PI3Kδ and PI3Kγ as targets for autoimmune and inflammatory diseases” (J Med Chem, 2012).
Blank lines part the entries; values can stand above or below the molecule they belong to.

Columns and labels:
[1] = molecular target: T1, Phosphatidylinositol 4,5-bisphosphate 3-kinase catalytic subunit delta isoform (Homo sapiens, UniProt O00329); assay: Inhibition of PI3Kdelta in human PBMC assessed as inhibition of anti-IgM-induced AKT phosphorylation by FACS analysis
T1 sequence (O00329 whole entry): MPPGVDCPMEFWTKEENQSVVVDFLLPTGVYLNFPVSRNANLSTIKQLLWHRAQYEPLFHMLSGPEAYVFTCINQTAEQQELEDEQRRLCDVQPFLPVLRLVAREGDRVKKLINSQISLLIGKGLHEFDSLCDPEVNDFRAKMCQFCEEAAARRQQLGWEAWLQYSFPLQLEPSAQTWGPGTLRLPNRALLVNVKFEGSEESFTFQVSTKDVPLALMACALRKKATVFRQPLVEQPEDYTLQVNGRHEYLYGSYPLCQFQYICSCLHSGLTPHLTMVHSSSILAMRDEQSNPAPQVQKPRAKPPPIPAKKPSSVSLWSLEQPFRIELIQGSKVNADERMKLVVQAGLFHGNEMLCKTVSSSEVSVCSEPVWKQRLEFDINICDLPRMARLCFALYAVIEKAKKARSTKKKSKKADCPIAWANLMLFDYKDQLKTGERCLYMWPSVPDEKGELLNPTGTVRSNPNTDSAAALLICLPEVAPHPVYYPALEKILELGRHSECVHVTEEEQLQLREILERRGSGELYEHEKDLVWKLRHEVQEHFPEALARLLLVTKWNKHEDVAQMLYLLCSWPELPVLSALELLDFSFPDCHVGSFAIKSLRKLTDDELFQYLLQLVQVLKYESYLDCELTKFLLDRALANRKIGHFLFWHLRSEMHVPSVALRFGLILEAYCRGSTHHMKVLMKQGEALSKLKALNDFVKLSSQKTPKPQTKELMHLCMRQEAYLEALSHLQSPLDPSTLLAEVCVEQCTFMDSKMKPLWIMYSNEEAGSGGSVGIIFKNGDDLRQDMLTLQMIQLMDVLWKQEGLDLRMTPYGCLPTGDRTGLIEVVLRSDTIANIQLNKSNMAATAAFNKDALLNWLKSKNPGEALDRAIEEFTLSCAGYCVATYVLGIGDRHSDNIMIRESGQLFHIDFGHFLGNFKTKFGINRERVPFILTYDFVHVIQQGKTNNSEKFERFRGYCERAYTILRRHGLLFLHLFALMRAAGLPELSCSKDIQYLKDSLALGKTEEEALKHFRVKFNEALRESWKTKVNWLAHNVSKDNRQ

[2] = molecular target: T1, Phosphatidylinositol 4,5-bisphosphate 3-kinase catalytic subunit delta isoform; assay: Inhibition of PI3Kdelta assessed as inhibition of H2O2-induced AKT phosphorylation by cell-based assay
Mus musculus [3] = assay: Antiinflammatory activity in LPS-induced COPD BALB/c mouse model assessed as reduction in pulmonary neutrophilia at 0.4 % administered as aerosolized formulation; format: functional; set-up: scale not given: the % may be the effect or the level left
Rattus norvegicus [4] = assay: Cardioprotective activity in Sprague-Dawley rat MI model assessed as reduction in coronary artery occlusion at 0.05 to 5 mg/kg, iv administered as single bolus dose post 60 mins of reperfusion measured after 24 hrs; format: functional; set-up: scale not given: the % may be the effect or the level left; settings: dose mg/kg 0.05-5
Sus scrofa = assay: Cardioprotective activity in pig MI model assessed as reduction in coronary artery occlusion at 0.5 mg/kg, iv administered as single bolus dose post 90 mins of reperfusion measured after 24 hrs; format: functional; set-up: scale not given: the % may be the effect or the level left
Rattus norvegicus [5] = assay: Antiinflammatory activity in Sprague-Dawley rat assessed as reduction in PAF/dextran-induced hind paw edema at 5 mg/kg; format: functional; set-up: scale not given: the % may be the effect or the level left
Mus musculus [6] = assay: Antiinflammatory activity in cigarette smoking-induced COPD BALB/c mouse model assessed as reduction in pulmonary neutrophilia at 0.4 % administered as aerosolized formulation; format: functional; set-up: scale not given: the % may be the effect or the level left
Mus musculus [7] = assay: Antiinflammatory activity in ovalbumin-sensitized mouse asthma model assessed as reduction in airway-hyper responsiveness at 0.4 % administered as aerosolized formulation for 12 to 14 days; format: functional; set-up: scale not given: the % may be the effect or the level left
Mus musculus [8] = assay: Antiinflammatory activity in ovalbumin-sensitized mouse asthma model assessed as reduction in lung eosinophils at 0.4 % administered as aerosolized formulation for 12 to 14 days; format: functional; set-up: scale not given: the % may be the effect or the level left
[9] = molecular target: T1, Phosphatidylinositol 4,5-bisphosphate 3-kinase catalytic subunit delta isoform; assay: Inhibition of PI3Kdelta using phosphatidylinositol as substrate by gamma33P[ATP] incorporation assay
Mus musculus [10] = species: Mus musculus; assay: Antiarthritic activity in adjuvant-induced rheumatoid arthritis mouse model assessed as reduction in disease clinical score; format: functional; set-up: scale not given: the % may be the effect or the level left
[11] = molecular target: T1, Phosphatidylinositol 4,5-bisphosphate 3-kinase catalytic subunit delta isoform; settings: read-out: IC50
[12] = molecular target: T2, Phosphatidylinositol 4,5-bisphosphate 3-kinase catalytic subunit delta isoform (Mus musculus, UniProt O35904); assay: Inhibition of PI3Kdelta-mediated AKT phosphorylation in mouse Raw 264.7 cells by immunoassay; format: cell-based
T2 sequence (O35904 whole entry): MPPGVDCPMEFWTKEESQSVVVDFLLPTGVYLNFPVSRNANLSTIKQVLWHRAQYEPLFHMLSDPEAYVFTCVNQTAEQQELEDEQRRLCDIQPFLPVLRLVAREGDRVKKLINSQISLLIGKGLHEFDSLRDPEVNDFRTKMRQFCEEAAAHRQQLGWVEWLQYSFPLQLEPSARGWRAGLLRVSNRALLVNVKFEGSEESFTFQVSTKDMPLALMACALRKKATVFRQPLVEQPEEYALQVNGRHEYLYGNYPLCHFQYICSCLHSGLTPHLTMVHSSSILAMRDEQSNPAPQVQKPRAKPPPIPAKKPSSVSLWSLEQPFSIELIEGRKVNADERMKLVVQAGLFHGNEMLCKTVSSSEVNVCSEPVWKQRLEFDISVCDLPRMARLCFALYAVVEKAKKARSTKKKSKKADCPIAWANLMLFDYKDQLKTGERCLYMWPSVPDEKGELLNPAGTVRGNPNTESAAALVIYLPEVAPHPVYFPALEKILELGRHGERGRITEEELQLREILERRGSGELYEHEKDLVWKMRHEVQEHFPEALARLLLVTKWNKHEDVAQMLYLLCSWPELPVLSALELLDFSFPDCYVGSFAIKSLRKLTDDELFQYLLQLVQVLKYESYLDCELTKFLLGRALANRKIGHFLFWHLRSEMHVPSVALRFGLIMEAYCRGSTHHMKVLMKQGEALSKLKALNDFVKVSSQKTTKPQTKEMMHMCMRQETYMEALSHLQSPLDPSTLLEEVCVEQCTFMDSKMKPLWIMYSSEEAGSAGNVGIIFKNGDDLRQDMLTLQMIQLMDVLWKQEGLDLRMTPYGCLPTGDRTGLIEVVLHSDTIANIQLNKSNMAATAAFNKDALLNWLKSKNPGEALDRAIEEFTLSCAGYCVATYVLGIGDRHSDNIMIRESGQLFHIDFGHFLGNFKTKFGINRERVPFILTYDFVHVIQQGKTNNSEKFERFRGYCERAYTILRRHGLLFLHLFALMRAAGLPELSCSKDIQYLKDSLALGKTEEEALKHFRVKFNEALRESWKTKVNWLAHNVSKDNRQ

IC50 [1]: 16 nM
Compound: COc1cc(Nc2nc3ccccc3nc2NS(=O)(=O)c2ccc(CN(C)C)cc2)cc(OC)c1

IC50 [2]: 570 nM
Compound: C#Cc1cccc2nc(Cn3nc(-c4cccc(O)c4)c4c(N)ncnc43)n(Cc3cccc(OC)c3)c(=O)c12

IC50 [9]: 1050 nM
Compound: O=c1cc(N2CCOCC2)oc2c(-c3ccccc3)cccc12 [LY-294002]

Second part, the molecule before the results:

Compound: Nc1nc(N)c2nc(-c3cccc(O)c3)c(-c3cccc(O)c3)nc2n1 [TG100-115]
Activity (Mus musculus [3]): 42% | Activity (Rattus norvegicus [4]): >=40% | Activity (Sus scrofa): 35% | Activity (Rattus norvegicus [5]): >=62% | Activity (Mus musculus [6]): >=81% | Activity (Mus musculus [7]): 50% | Activity (Mus musculus [8]): 79%

Compound: O=C1NC(=O)/C(=C/c2ccc3nccnc3c2)S1
Activity (Mus musculus [10]): 40%

Compound: O=C1NC(=O)/C(=C/c2ccc3ncnc(N4CCC(C(F)(F)F)CC4)c3n2)S1
IC50 [11]: 6 nM | IC50 [12]: < 10 nM
